{
  "source": "patent US20160367831A1",
  "about": "“IMPLANTABLE MEDICAL DEVICE, SYSTEM AND METHOD FOR INDUCING THROMBOSIS IN AN ARTERY OF A LIVING ANIMAL” (Chang Gung Memorial Hospital, Linkou, priority 2015, published 2016)",
  "type_in_all_cases": "in vivo, spontaneously hypertensive rat (SHR)",
  "key": {"[1]": {"system": "common carotid artery (CCA)", "experiment": "Histological (H&E) and immunohistochemical (PECAM-1) staining of the CCAs", "details": "for thrombus formation, histologic examination (H&E): 3 days", "description": "The animal of Example 3 and Comparative Example 2 was anesthetized and sacrificed. Both CCAs of Example 3 and Comparative Example 2 were removed and washed in phosphate buffer solution, dehydrated on dry ice, and stored at −80° C. for 24 hours. Before sectioning, all CCAs were embedded in Optimal Cutting Temperature Compound (Tissue Tek, 4583) (Sakura Finetek USA, Inc., Torrance, Calif., USA) and stored at −80° C. for another 12 hours. Cross-sections of the CCAs of Example 3 and Comparative Example 2 (10 μm in thickness) were consecutively cut on a microtome-cryostat. Then, these sections were subjected to hematoxylin and eosin (H&E) staining for evaluation of thrombus formation. For immunohistochemical staining, the slides were treated with cold acetone for 10 minutes and then with methanol with 0.3% H2O2 for 10 minutes. After blocking endogenous peroxidase using a peroxidase blocking reagent (DAKO, Carpinteria, Calif., USA), the primary antibody (anti-PECAM-1 [anti-CD31]) (AbD Serotec, Dusseldorf, Germany) was applied at a dilution of 1:500 overnight at 4° C., followed by a universal immuno-peroxidase polymer (Histofine) (Cosmo Bio, Carlsbad, Calif., USA) for 1 hour at room temperature. Development of color was achieved by exposure for 2 minutes to the DAB chromogen system (DAKO). Endothelium cells were considered positive for PECAM-1 in the presence of intense brown staining."}, "[2]": {"system": "common carotid artery (CCA)", "experiment": "LED photochemical thrombosis induction in the common carotid artery, ultrasound imaging", "details": "for thrombosis formation in the CCA (ultrasound): no irradiation", "excerpt": "A system for inducing thrombosis was provided, including an implantable medical device and an external power controller. The external power controller includes a Class-E amplifier and a resonant transmitting coil. The implantable medical device includes a resonant receiving coil (i.e., the wireless power receiver) and an LED assembly (i.e., the irradiation module) including a surface-mount device type LED (i.e., the light-emitting element) and a LED lens (i.e., the lens element) disposed on the LED. The LED assembly and the resonant receiving coil were hermetically packaged with polydimethylsiloxane (PDMS) (i.e., the encapsulator). An open ditch of approximately 2 mm in width and depth was made on the LED lens, and four cuts (i.e., the engaging groove) were formed on the PDMS. A male spontaneously hypertensive rat (SHR) (i.e., the living animal) was anesthetized with 3% isoflurane in a mixture of 30% oxygen and 70% nitrogen. After the administration of anesthesia, the rat was placed in a supine position. A 1 cm incision was made in the left inguinal area and the femoral vein was carefully dissected. A polyethylene tube to be used for rose bengal injection was inserted in the femoral vein via the dissected incision and secured using 3-0 nylon suture. […] Blunt dissection of the left common carotid artery (CCA) was performed. The CCA was placed into the ditch of the LED lens, and the implantable medical device was secured onto the CCA using 3-0 nylon suture (i.e., the securing strap) to engage the cuts on the PDMS. After the implantation procedure, the surgical wound was sutured and the rat was placed in a prone position near the transmitting coil of the external power controller. After isoflurane was decreased to 1%, rose bengal (Sigma-Aldrich, St. Louis, Mo., USA) was administrated intravenously at a dose of 60 mg/kg. Thereafter, the external power controller was powered to wirelessly drive the LED of the implantable medical device via the resonant receiving coil to irradiate the CCA at a wavelength of 540 nm. […] The LED light power was measured using a Nova handheld laser power meter (Ophir Optronics Solutions, Ltd., Israel). After irradiation, the implantable medical device was removed and the wound was sutured using 3-0 nylon. Ultrasound images of the CCA prior to irradiation (Pre OP), immediately after irradiation (Post OP), 3 days after irradiation (Post OP 3d), and 7 days after irradiation (Post OP 7d) were captured and are shown in FIG. 6."}, "[3]": {"system": "common carotid artery (CCA)", "experiment": "Magnetic Resonance Angiography (MRA) examination of the CCAs", "details": "Example 3: intermittent 4.5 mW/cm2 LED", "description": "Serial in vivo MRA examination was performed on the CCAs of Example 3 and Comparative Example 2, and the typical MR imaging (MRI) experimental scheme of the time sequence is shown in FIG. 9. Images were acquired using a 7T MRI system (ClinScan 70/30 USR) (Bruker, Rheinstetten, Germany) with a linear body coil. The rat was anaesthetized with 1.5% isoflurane and connected to a respiratory rate monitor. The flow of anesthetic gas was constantly regulated to maintain the breathing rate at approximately 40/min. MRA of the CCAs was performed using the time-of-flight (TOF) method without a contrast agent. Transverse slices (panels (a) to (d) of FIG. 9) were acquired with a fast, low-angle shot (FLASH) using the following parameters: TR=22 ms, TE=4.87 ms, pulse angle=90 degrees, field of view (FQV)=55×42 mm2, and matrix size=58×256. T2-weighted images (panels (e) to (f) of FIG. 9) were acquired using a turbo spin-echo sequence and using the following parameters: TR=2900 ms, TE=37 ms, turbo factor=7, FOV=45×45 mm2, slice thickness=1 mm, and matrix size=240×320. The imaged area covered the CCAs, the carotid bifurcation, the internal carotid artery, and the external carotid artery. Contiguous cross-sectional images were obtained perpendicular to the long axis of the neck. Thrombus formation in the CCAs of Example 3 and Comparative Example 2 was observed by MRA and coronal sequential MR images. […] Because the blood flow of the CCA of Example 3 was disrupted by thrombus, MRA of the CCA of Example 3 was not as bright as the MRA of the CCA of Comparative Example 2 (panel (b) of FIG. 9)."}, "[4]": {"details": "Example 3: intermittent 4.5 mW/cm2 LED"}},
  "data": [
    {"smiles": "O=C([O-])c1c(Cl)c(Cl)c(Cl)c(Cl)c1-c1c2cc(I)c(=O)c(I)c-2oc2c(I)c([O-])c(I)cc12.[Na+].[Na+]", "note": "[rose bengal]", "values": [
      {"measurement": "endothelial cells, PECAM-1 staining", "setting": "[1]; Comparative Example 2: non-irradiated CCA of the same rat", "value": "intact"},
      {"measurement": "endothelial cells, PECAM-1 staining", "setting": "[1]; [4]", "value": "injured and discontinued"},
      {"measurement": "thrombus formation, histologic examination (H&E)", "setting": "[1]; [4]", "value": "formation of thrombus packed with red blood cells, leucocytes, and platelets"},
      {"measurement": "thrombus formation, histologic examination (H&E)", "setting": "[1]; non-irradiated CCA of the same rat", "value": "no thrombus formation was observed"},
      {"measurement": "thrombosis formation in the CCA (ultrasound)", "setting": "[2]; Comparative Example 1: 60 mg/kg i.v., up to 7 days", "value": "thrombosis did not form"},
      {"measurement": "thrombosis formation in the CCA (ultrasound)", "setting": "[2]; Comparative Example 2: right CCA of the Example 3 rat, up to 7 days", "value": "thrombosis was not formed"},
      {"measurement": "thrombosis / occlusion of the CCA (ultrasound)", "setting": "[2]; Comparative Example 5: intermittent LED 4.0 mW/cm2 (2 h, off 30 min, 2 h), up to 1 day", "value": "disappeared within one day after irradiation"},
      {"measurement": "thrombosis / occlusion of the CCA (ultrasound)", "setting": "[2]; Comparative Example 6: intermittent LED 5.0 mW/cm2 (2 h, off 30 min, 2 h), up to 1 day", "value": "the artery became totally occluded one day after irradiation"},
      {"measurement": "thrombosis / occlusion of the CCA (ultrasound)", "setting": "[2]; Example 1: 60 mg/kg i.v., LED 540 nm, 6 mW/cm2 continuously for 4 hours, up to 7 days", "value": "totally occluded right after irradiation and total occlusion was maintained for 7 days"},
      {"measurement": "thrombosis / occlusion of the CCA (ultrasound)", "setting": "[2]; Example 2: 60 mg/kg i.v., LED 5 mW/cm2 continuously for 4 hours, up to 7 days", "value": "the formed thrombus gradually diminished 3 days after irradiation (Post OP 3d) and totally disappeared at 7 days after irradiation"},
      {"measurement": "thrombosis / occlusion of the CCA (ultrasound)", "setting": "[2]; Example 3: 60 mg/kg i.v., LED 4.5 mW/cm2 2 hours, off 30 minutes, 2 hours, up to 7 days", "value": "the CCA was totally occluded at 7 days after irradiation"},
      {"measurement": "thrombus in the CCA (MRA / T2-weighted MRI)", "setting": "[3]; immediately after irradiation", "value": "the thrombus appeared on the vessel wall"},
      {"measurement": "thrombus in the CCA (MRA / T2-weighted MRI)", "setting": "[3]; seven days after irradiation", "value": "totally occluded"},
      {"measurement": "thrombus in the CCA (MRA / T2-weighted MRI)", "setting": "[3]; three days after irradiation", "value": "enlarged and significantly disrupted blood flow"}
    ]}
  ]
}
